Numbered stars: 1 amine (or outer) side, 2 acyl side, 3 side chain; on linkers, the order of the positions; unused ones are H or OH. Square brackets hold non-standard residues; d marks the D form. Peptide text beside a SMILES is read from it. NMeF = CN[C@@H](Cc1ccccc1)C(=O)O; Aad = N[C@@H](CCCC(=O)O)C(=O)O; Oxalyl = O=C(C(=O)[*:2])[*:1]
Key:
[1] = Induction of periodic burst of multiple-unit activity volleys in OVX goat assessed as number of ligand-induced multiple-unit activity volleys at 200 nmol, iv; format: functional, Capra hircus
[2] = Metabolic stability in goat serum by HPLC analysis; format: ADME, Capra hircus
[3] = Agonist activity at goat NK3 receptor expressed in CHO cells assessed as calcium influx relative to 100 nM senktide; format: cell-based; details: Capra hircus
[4] = Induction of periodic burst of multiple-unit activity volleys in OVX goat assessed as time duration of effect at 200 nmol, iv; format: functional, Capra hircus
[5] = Agonist activity at cattle NK3 receptor expressed in CHO cells assessed as calcium influx relative to 100 nM senktide; format: cell-based
[6] = system: Serum; test: Metabolic stability in rat serum by HPLC analysis; format: ADME
[7] = molecular target: T1, Substance-K receptor (Homo sapiens, UniProt P21452); test: Displacement of [125I]-NKA from NK2 receptor (unknown origin) expressed in CHO cells by scintillation counter; format: cell-based
T1 sequence (P21452 whole entry): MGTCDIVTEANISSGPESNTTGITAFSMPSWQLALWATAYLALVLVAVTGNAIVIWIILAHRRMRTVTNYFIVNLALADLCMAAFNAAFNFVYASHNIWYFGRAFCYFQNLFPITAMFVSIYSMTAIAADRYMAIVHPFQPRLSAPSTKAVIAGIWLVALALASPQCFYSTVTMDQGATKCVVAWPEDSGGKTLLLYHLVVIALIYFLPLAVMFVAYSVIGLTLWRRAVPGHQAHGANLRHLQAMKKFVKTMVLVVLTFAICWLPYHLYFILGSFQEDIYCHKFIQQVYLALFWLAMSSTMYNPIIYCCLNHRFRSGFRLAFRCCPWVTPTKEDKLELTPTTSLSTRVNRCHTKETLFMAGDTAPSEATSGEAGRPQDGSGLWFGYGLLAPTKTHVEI

[8] = system: Serum; test: Metabolic stability in cattle serum by HPLC analysis; format: ADME, Bos taurus
[9] = molecular target: Substance-P receptor (Homo sapiens, UniProt P25103); test: Displacement of [125I]-BH-SP from NK1 receptor (unknown origin) expressed in CHO cells by scintillation counter; format: cell-based
[10] = molecular target: T2, Neuromedin-K receptor (Homo sapiens, UniProt P29371); test: Agonist activity at human NK3 receptor expressed in CHO cells assessed as calcium influx relative to 100 nM senktide; format: functional, cell-based
T2 sequence (P29371 whole entry): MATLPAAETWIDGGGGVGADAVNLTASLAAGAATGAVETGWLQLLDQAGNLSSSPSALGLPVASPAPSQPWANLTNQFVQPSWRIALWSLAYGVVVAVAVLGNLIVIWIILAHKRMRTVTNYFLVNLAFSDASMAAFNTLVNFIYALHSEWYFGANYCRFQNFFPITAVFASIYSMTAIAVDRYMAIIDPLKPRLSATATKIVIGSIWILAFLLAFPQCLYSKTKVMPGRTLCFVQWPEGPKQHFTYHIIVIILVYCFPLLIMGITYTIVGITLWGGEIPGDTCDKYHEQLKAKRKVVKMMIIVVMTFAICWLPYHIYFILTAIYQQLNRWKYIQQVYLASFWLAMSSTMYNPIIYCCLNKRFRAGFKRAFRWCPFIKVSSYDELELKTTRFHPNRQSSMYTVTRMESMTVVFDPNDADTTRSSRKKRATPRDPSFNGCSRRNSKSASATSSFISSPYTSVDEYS

[11] = molecular target: T3, Neuromedin-K receptor (Homo sapiens) (UniProt P29371); test: Potency index, ratio of EC50 for […] to EC50 for test compound for agonist activity at human NK3 receptor
T3 sequence (whole entry): T2 sequence (P29371 whole entry)

[12] = molecular target: T4, Neuromedin-K receptor (Rattus norvegicus, UniProt P16177); test: Agonist activity at rat NK3 receptor expressed in CHO cells assessed as calcium influx relative to 100 nM senktide; format: functional, cell-based
T4 sequence (P16177 whole entry): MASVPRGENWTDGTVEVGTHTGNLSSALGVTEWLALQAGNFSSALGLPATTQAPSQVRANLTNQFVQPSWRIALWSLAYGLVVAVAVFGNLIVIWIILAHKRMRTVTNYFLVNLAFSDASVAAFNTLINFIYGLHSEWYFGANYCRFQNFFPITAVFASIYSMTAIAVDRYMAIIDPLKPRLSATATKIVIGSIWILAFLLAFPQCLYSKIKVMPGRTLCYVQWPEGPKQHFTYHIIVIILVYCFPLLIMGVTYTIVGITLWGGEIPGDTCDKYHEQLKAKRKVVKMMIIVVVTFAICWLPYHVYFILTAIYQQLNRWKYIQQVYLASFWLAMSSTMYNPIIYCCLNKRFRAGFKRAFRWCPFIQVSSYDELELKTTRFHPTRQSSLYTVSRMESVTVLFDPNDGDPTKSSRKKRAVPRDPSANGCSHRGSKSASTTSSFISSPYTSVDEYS

[13] = molecular target: Neprilysin (NEP 24.11) (Homo sapiens, UniProt P08473); test: Stability of compound assessed as NEP 24.11 (unknown origin)-mediated drug degradation after 24 hrs by HPLC analysis; format: ADME; details: NEP 24.11 (neprilysin) enzyme
[14] = molecular target: T2, Neuromedin-K receptor; test: Displacement of ([125I]His3-MePhe7)-NKB from NK3 receptor (unknown origin) expressed in CHO cells by scintillation counter; format: cell-based

Chain of Substance-P receptor (P25103 whole entry): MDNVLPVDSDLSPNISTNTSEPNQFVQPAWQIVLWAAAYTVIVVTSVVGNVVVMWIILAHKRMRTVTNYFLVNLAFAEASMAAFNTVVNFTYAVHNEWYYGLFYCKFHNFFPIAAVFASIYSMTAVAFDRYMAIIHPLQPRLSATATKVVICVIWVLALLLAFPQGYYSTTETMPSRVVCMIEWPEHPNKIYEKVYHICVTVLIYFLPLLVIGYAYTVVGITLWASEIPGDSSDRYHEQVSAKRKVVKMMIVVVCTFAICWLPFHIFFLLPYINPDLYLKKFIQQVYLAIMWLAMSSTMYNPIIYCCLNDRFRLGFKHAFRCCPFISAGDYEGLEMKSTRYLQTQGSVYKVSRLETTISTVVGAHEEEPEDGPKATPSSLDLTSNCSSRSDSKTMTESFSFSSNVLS
Chain of Neprilysin (NEP 24.11) (P08473 whole entry): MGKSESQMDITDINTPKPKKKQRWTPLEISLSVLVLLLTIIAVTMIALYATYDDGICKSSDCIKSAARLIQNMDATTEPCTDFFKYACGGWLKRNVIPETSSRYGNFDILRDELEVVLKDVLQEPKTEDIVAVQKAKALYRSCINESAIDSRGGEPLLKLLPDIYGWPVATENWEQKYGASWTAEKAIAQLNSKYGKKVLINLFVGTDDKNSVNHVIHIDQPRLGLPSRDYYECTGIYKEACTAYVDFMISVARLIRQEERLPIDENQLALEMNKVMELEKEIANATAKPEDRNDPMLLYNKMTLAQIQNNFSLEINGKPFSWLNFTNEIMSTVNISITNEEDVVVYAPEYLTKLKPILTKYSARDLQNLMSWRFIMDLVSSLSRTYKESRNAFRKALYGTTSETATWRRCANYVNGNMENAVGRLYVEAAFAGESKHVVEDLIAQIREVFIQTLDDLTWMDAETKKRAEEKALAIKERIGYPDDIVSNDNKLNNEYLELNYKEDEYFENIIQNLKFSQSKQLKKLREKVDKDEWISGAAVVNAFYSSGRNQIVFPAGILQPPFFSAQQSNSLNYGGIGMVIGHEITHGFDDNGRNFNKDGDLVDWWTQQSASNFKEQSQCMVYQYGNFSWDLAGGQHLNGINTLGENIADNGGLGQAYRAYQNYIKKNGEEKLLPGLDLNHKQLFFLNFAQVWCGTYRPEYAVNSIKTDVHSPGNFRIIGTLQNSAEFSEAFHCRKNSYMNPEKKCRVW

Structure (SMILES)	Activity [1]	Stability [2]	EC50 [3]	Time [4]	EC50 [5]	Stability [6]	IC50 [7]	Stability [8]	IC50 [9]	EC50 [10]	Ratio EC50 [11]	EC50 [12]	metabolised at 24 h [13]	IC50 [14]
CSCC[C@H](NC(=O)[C@H](CC(C)C)NC(=O)CNC(=O)[C@H](Cc1ccccc1)N(C)C(=O)[C@H](Cc1ccccc1)NC(=O)[C@H](CC(=O)O)NC(=O)CCC(=O)O)C(N)=O [SENKTIDE]	2.6	Stable	0.019 nM	47.2 min	0.61 nM	Stable	> 10000 nM	Stable	–	–	–	–	–	–
CSCC[C@H](NC(=O)[C@H](CC(C)C)NC(=O)CNC(=O)[C@H](Cc1ccccc1)N(C)C(=O)[C@H](Cc1ccccc1)NC(=O)[C@H](CCC(=O)O)NC(=O)C(=O)O)C(N)=O	–	Stable	0.012 nM	–	0.169 nM	Stable	> 10000 nM	Stable	> 10000 nM	0.0091 nM	7	0.013 nM	> 70%	0.43 nM
CSCC[C@H](NC(=O)[C@H](CC(C)C)NC(=O)CNC(=O)[C@H](Cc1ccccc1)N(C)C(=O)[C@H](Cc1ccccc1)NC(=O)[C@H](CCCC(=O)O)NC(=O)C(=O)O)C(N)=O (Oxalyl-[Aad]F[NMeF]GLM-NH2)	–	–	0.0093 nM	–	0.15 nM	–	> 10000 nM	–	> 10000 nM	0.0074 nM	–	0.0072 nM	> 70%	1.4 nM
CSCC[C@H](NC(=O)[C@H](CC(C)C)NC(=O)CNC(=O)[C@H](Cc1ccccc1)N(C)C(=O)[C@H](Cc1ccccc1)NC(=O)[C@@H](CCC(=O)O)NC(=O)C(=O)O)C(N)=O	2.7	Stable	0.0094 nM	50.4 min	0.152 nM	Stable	> 10000 nM	Stable	> 10000 nM	0.014 nM	7	0.0099 nM	–	0.51 nM

Reference: ChEMBL document CHEMBL3734731 (Medchemcomm, 2015)
